Results: patent US20230174608A1, “Polypeptide Derivative Having Dual Receptor Agonistic Action and Use Thereof” (TIANJIN INSTITUTE OF PHARMACEUTICAL RESEARCH CO., LTD., priority 2020, published 2023)
*1 amine or outer side, *2 acyl side, *3 side chain or, on linkers, in order; H or OH if unused. Where a SMILES comes first, the peptide text is derived from it. Side-chain parts run from the residue outwards. [ ]: non-standard residue; d: D form. The star is where a group is joined. γGlu = O=C(O)[C@H](CCC(=O)[*:2])N[*:1]; Palmitoyl = CCCCCCCCCCCCCCCC(=O)*; AEEA = NCCOCCOCC(=O)O; Aib = CC(C)(N)C(=O)O

What was measured:
GCGR = molecular target: T1, GCGR (Homo sapiens, UniProt P47871); assay: GC receptor-mediated cAMP production in vitro; format: cell-based; conditions: HEK293 cell line stably expressing GCGR
T1 construct: expressed in transfected cells
Experimental: (§1) HEK293 cell line stably expressing GLP-1R or GCGR was used for screening GLP-1R and GCGR agonist.
(§2) Preparation of test sample: each compound was prepared into 100 μM stock solution, and then gradually diluted to working concentrations of 1 μM, 100 nM, 10 nM, 1 nM, 10^−1 nM, 10^−2 nM, 10^−3 nM, and H2O.
(§3) 1) Each compound to be tested was mixed with a serum-free medium (containing 0.1% BSA and 0.5 mM IBMX) to obtain a solution at a concentration 2 times the working concentration.
(§4) 2) The cells were digested, suspended in a serum-free medium (containing 0.5 mM IBMX), counted, and placed in a 384-well plate at a density of 1,000 cells/5 μL/well, then 5 μL of the testing compound was added, and the plate was placed in dark for reaction for 30 min.
(§5) 3) After the reaction was completed, a substrate for detecting cAMP was added, and the plate was placed in dark for reaction at the room temperature for 60 min.
(§6) 4) After the reaction was completed, the plate was placed on the Envision2104 multifunctional microplate reader for detection, and the ratio of optical density (OD) values at 665 nm and 615 nm were read out.

[1] = tested on: glucose loaded normal mice; assay: Glucose loading test on normal mice after single administration; format: in vivo, Kunming mice; conditions: for Blood glucose reduction rate (%) / Blood glucose level after glucose loading: 30 nmol/kg single dose; for Blood glucose reduction rate (%): after glucose loading, versus model control group; for Blood glucose level after glucose loading: glucose 2.5 g/kg intragastric 60 min after administration, measured 30 min after loading; for Blood glucose level after glucose loading / Fasting blood glucose level: n=5; for Fasting blood glucose level: normal mice fasted 6 h, 30 nmol/kg group
Experimental: The hypoglycemic action of each compound of Example 1 was assessed by a glucose loading test on normal mice after single administration.
Method: Kunming mice (male, with a weight of 20-22 g) were acclimated in a barrier environment animal room for 3 days, divided into a blank control group, a model control group, a positive control group, and test compound groups, 5 mice in each group, and fasted for 6 h. Saline was administered to each mouse in the blank control group and the model control group, the compounds and a positive control drug were respectively administered to each mouse in the test compound groups and the positive control group at a dose of 30 nmol/kg, and the positive control drug was semaglutide. 60 min after administration, glucose was intragastrically administered to each mouse in the model control group, the positive control group, and the test compound groups at a dose of 2.5 g/kg (0.01 mL·g^−1 weight), distilled water was administered to each mouse in the blank control group, and blood glucose levels were determined 30 min after glucose loading.

GLP-1R = molecular target: T2, GLP-1R (Homo sapiens, UniProt P43220); assay: GLP-1 receptor-mediated cAMP production in vitro; format: cell-based; conditions: HEK293 cell line stably expressing GLP-1R
T2 construct: expressed in transfected cells
Experimental: as §1, §2, §3, §4, §5, §6

[2] = tested on: diet-induced obesity (DIO) mice; assay: Obese (DIO) model mice, 23 days of successive administration; format: in vivo, C57BL/6J Gpt mice
Description: C57BL/6J Gpt mice (purchased from GemPharmatech (Jiangsu) Co., Ltd.) (6-8-week-old) were fed with H10060 high-fat diet (purchased from Beijing HFK Bioscience Co., Ltd.) to obtain diet-induced obesity (DIO) models, mice in a blank control group (n=5) were fed with standard diets, and all the mice were fed for 11 weeks after being purchased. One day before the first administration, the mice in the model group were randomly divided into 5 groups according to their weights (within a range of 39.5-49.5 g), i.e., a model control group, a positive control group, and test compound groups (dgc005, dgc016, and dgc020), respectively, 5 mice in each group, which were administered every day by subcutaneous injection. Saline was subcutaneously injected in the blank control group and the model control group every day. The administration was performed for 23 days. The positive control drug and the test compounds were administered at a dose of 30 nmol/kg, and the administration volume for each group was 0.005 mL/g weight. The mice were weighed before each administration, and 72-h food intake was weighed every three days. The mice fasted for 16 h before the last administration, fasting blood glucose levels were determined, blood was sampled from the orbital venous plexus to determine triglycerides and total cholesterol, and the liver was taken out for pathological section observation.
The liver of each C576L/6 mouse in the groups was fixed with 12% formaldehyde and prepared into a specimen, and the tissue block was repaired, dehydrated with graded alcohol, embedded in paraffin, stained with HE, and examined under a light microscope.

[3] = after 23 days of administration, 30 nmol/kg s.c. daily, n=5

T2 sequence (P43220 24-463, species assumed): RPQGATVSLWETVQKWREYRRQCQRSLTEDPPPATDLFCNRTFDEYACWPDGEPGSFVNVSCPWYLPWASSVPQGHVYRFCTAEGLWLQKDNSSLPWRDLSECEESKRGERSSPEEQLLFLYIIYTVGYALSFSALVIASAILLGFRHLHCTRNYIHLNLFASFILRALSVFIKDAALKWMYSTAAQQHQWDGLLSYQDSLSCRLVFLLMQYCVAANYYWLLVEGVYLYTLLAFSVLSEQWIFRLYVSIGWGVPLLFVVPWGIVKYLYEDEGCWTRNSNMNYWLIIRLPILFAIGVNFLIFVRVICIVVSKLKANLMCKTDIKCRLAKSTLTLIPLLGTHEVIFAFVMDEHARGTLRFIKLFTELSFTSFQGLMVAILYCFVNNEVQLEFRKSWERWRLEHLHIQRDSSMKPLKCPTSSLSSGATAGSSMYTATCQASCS
T1 sequence (P47871 26-477, species assumed): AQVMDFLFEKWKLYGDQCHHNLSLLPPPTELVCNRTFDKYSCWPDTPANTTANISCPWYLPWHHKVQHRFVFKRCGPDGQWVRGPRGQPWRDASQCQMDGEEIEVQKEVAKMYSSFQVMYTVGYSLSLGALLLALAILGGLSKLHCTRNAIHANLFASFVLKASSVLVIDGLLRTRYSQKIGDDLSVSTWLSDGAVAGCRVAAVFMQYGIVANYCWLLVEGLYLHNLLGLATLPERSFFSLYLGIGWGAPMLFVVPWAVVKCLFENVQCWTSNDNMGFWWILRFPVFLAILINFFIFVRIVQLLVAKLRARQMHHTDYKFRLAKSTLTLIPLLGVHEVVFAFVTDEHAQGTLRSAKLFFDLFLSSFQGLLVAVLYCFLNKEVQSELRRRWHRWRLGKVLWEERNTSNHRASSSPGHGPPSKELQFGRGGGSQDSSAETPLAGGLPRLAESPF

EC50 (GCGR) [nM]	EC50 (GLP-1R) [nM]	SMILES	Blood glucose reduction rate (%) [1] [%]	Blood glucose level after glucose loading [1] [mmol/L]	Fasting blood glucose level [1] [mmol/L]	Fasting blood glucose (mmol/L) before the last administration ([2]; 30 nmol/kg s.c. daily, 23 days, fasted 16 h, n=5) [mmol/L]	Weight decreasing rate ([2]; 30 nmol/kg s.c. every day, without fasting before the last administration compared to day 1) [%]	Examination of liver pathological section ([2]; 23 days, 30 nmol/kg s.c. daily, HE stain, 2 animals)	TC (total cholesterol) [2, 3] [mmol/L]	TG (triglycerides) [2, 3]	72-h food intake ([2]; day 4 of administration, 30 nmol/kg s.c. daily) [g/mouse]	72-h food intake ([2]; day 7 of administration, 30 nmol/kg s.c. daily) [g/mouse]	72-h food intake ([2]; day 10 of administration, 30 nmol/kg s.c. daily) [g/mouse]	72-h food intake ([2]; day 13 of administration, 30 nmol/kg s.c. daily) [g/mouse]
2.03	0.742	CCCCCCCCCCCCCCCC(=O)N[C@@H](CCC(=O)NCCCC[C@H](NC(=O)[C@H](C)NC(=O)[C@H](C)NC(=O)[C@H](CCCNC(=N)N)NC(=O)[C@H](CCC(=O)O)NC(=O)[C@H](CCC(=O)O)NC(=O)[C@H](CC(C)C)NC(=O)[C@H](Cc1ccc(O)cc1)NC(=O)[C@H](CCCCN)NC(=O)[C@H](CO)NC(=O)[C@H](Cc1ccc(O)cc1)NC(=O)[C@H](CC(=O)O)NC(=O)[C@H](CO)NC(=O)[C@@H](NC(=O)[C@H](Cc1ccccc1)NC(=O)[C@@H](NC(=O)CNC(=O)[C@H](CCC(N)=O)NC(=O)C(C)(C)NC(=O)[C@@H](N)Cc1c[nH]cn1)[C@@H](C)O)[C@@H](C)O)C(=O)N[C@@H](CCC(=O)O)C(=O)N[C@@H](Cc1ccccc1)C(=O)N[C@H](C(=O)N[C@@H](C)C(=O)N[C@@H](Cc1c[nH]c2ccccc12)C(=O)N[C@@H](CC(C)C)C(=O)N[C@@H](CCC(=O)O)C(=O)N[C@@H](CO)C(=O)NCC(=O)NCC(N)=O)[C@@H](C)CC)C(=O)O [dgc008] (HELM PEPTIDE1{H.[Aib].Q.G.T.F.T.S.D.Y.S.K.Y.L.E.E.R.A.A.K.E.F.I.A.W.L.E.S.G.G.[am]}|PEPTIDE2{[CCCCCCCCCCCCCCCC(=O)[*:2]].[gGlu]}$PEPTIDE1,PEPTIDE2,20:R3-2:R2$$$V2.0; N-terminus assumed)	48.70	8.72 ± 1.99	3.64 ± 1.00	–	–	–	–	–	–	–	–	–
0.883	1.51	CCCCCCCCCCCCCCCC(=O)N[C@@H](CCC(=O)N[C@@H](CCC(=O)NCCCC[C@H](NC(=O)[C@H](C)NC(=O)[C@H](C)NC(=O)[C@H](CCCNC(=N)N)NC(=O)[C@H](CCC(=O)O)NC(=O)[C@H](CCC(=O)O)NC(=O)[C@H](CC(C)C)NC(=O)[C@H](Cc1ccc(O)cc1)NC(=O)[C@H](CCCCN)NC(=O)[C@H](CO)NC(=O)[C@H](Cc1ccc(O)cc1)NC(=O)[C@H](CC(=O)O)NC(=O)[C@H](CO)NC(=O)[C@@H](NC(=O)[C@H](Cc1ccccc1)NC(=O)[C@@H](NC(=O)CNC(=O)[C@H](CCC(N)=O)NC(=O)C(C)(C)NC(=O)[C@@H](N)Cc1c[nH]cn1)[C@@H](C)O)[C@@H](C)O)C(=O)N[C@@H](CCC(=O)O)C(=O)N[C@@H](Cc1ccccc1)C(=O)N[C@H](C(=O)N[C@@H](C)C(=O)N[C@@H](Cc1c[nH]c2ccccc12)C(=O)N[C@@H](CC(C)C)C(=O)N[C@@H](CCC(=O)O)C(=O)NCC(=O)N[C@@H](CCC(=O)O)C(=O)NCC(N)=O)[C@@H](C)CC)C(=O)O)C(=O)O [dgc020] (HELM PEPTIDE1{H.[Aib].Q.G.T.F.T.S.D.Y.S.K.Y.L.E.E.R.A.A.K.E.F.I.A.W.L.E.G.E.G.[am]}|PEPTIDE2{[CCCCCCCCCCCCCCCC(=O)[*:2]].[gGlu].[gGlu]}$PEPTIDE1,PEPTIDE2,20:R3-3:R2$$$V2.0; N-terminus assumed)	42.24	9.82 ± 2.06	4.24 ± 0.63	4.78 ± 0.46	25.0	no obvious pathological changes are seen in portal areas and interstitium	3.62 ± 0.84	0.88 ± 0.28^Δ mmol/L	3.50	4.50	5.70	5.50
8.22	0.092	CCCCCCCCCCCCCCCC(=O)N[C@@H](CCC(=O)NCCOCCOCC(=O)NCCOCCOCC(=O)NCCCC[C@H](NC(=O)[C@H](C)NC(=O)[C@H](C)NC(=O)[C@H](CCCNC(=N)N)NC(=O)[C@H](CCC(=O)O)NC(=O)[C@H](CCC(=O)O)NC(=O)[C@H](CC(C)C)NC(=O)[C@H](Cc1ccc(O)cc1)NC(=O)[C@H](CCCCN)NC(=O)[C@H](CO)NC(=O)[C@H](Cc1ccc(O)cc1)NC(=O)[C@H](CC(=O)O)NC(=O)[C@H](CO)NC(=O)[C@@H](NC(=O)[C@H](Cc1ccccc1)NC(=O)[C@@H](NC(=O)CNC(=O)[C@H](CCC(N)=O)NC(=O)C(C)(C)NC(=O)[C@@H](N)Cc1c[nH]cn1)[C@@H](C)O)[C@@H](C)O)C(=O)N[C@@H](CCC(=O)O)C(=O)N[C@@H](Cc1ccccc1)C(=O)N[C@H](C(=O)N[C@@H](C)C(=O)N[C@@H](Cc1c[nH]c2ccccc12)C(=O)N[C@@H](CC(C)C)C(=O)N[C@@H](CCC(=O)O)C(=O)N[C@@H](CO)C(=O)NCC(=O)NCC(N)=O)[C@@H](C)CC)C(=O)O [dgc009] (H-H[Aib]QGTFTSDYSKYLEERAAK([AEEA-AEEA-γGlu-Palmitoyl])EFIAWLESGG-NH2; N-terminus assumed)	–	–	–	–	–	–	–	–	–	–	–	–
1.99	0.319	CCCCCCCCCCCCCCCC(=O)N[C@@H](CCC(=O)N[C@@H](CCC(=O)NCCCC[C@H](NC(=O)[C@H](C)NC(=O)[C@H](C)NC(=O)[C@H](CCCNC(=N)N)NC(=O)[C@H](CCC(=O)O)NC(=O)[C@H](CC(=O)O)NC(=O)[C@H](CC(C)C)NC(=O)[C@H](Cc1ccc(O)cc1)NC(=O)[C@H](CCCCN)NC(=O)[C@H](CO)NC(=O)[C@H](Cc1ccc(O)cc1)NC(=O)[C@H](CC(=O)O)NC(=O)[C@H](CO)NC(=O)[C@@H](NC(=O)[C@H](Cc1ccccc1)NC(=O)[C@@H](NC(=O)CNC(=O)[C@H](CCC(N)=O)NC(=O)C(C)(C)NC(=O)[C@@H](N)Cc1c[nH]cn1)[C@@H](C)O)[C@@H](C)O)C(=O)N[C@@H](CCC(=O)O)C(=O)N[C@@H](Cc1ccccc1)C(=O)N[C@H](C(=O)N[C@@H](C)C(=O)N[C@@H](Cc1c[nH]c2ccccc12)C(=O)N[C@@H](CC(C)C)C(=O)N[C@@H](CCC(=O)O)C(=O)NCC(=O)NCC(N)=O)[C@@H](C)CC)C(=O)O)C(=O)O [dgc013] (HELM PEPTIDE1{H.[Aib].Q.G.T.F.T.S.D.Y.S.K.Y.L.D.E.R.A.A.K.E.F.I.A.W.L.E.G.G.[am]}|PEPTIDE2{[CCCCCCCCCCCCCCCC(=O)[*:2]].[gGlu].[gGlu]}$PEPTIDE1,PEPTIDE2,20:R3-3:R2$$$V2.0; N-terminus assumed)	45.53	9.26 ± 1.76	3.92 ± 0.51	–	–	–	–	–	–	–	–	–
